Results from US20110178072A1, “STEREOSPECIFICITY OF METHYLSULFINYL REDUCTION” (priority 2008, published 2011).

Experiments:
mouse MsrA = molecular target: T1, mouse MsrA (Mus musculus, UniProt Q9D6Y7); test: Reduction of methylsulfinyl compounds by mouse MsrA (HPLC/GC analysis); assay type: biochemical; conditions: DTT as a reductant
T1 sequence (Q9D6Y7 21-233): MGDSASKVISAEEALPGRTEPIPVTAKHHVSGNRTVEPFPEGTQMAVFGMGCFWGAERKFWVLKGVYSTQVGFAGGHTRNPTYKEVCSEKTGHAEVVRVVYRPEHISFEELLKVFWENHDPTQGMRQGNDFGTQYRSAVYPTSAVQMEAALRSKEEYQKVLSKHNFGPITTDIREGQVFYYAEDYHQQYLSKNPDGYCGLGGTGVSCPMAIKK
Method: (§1) The isothiocyanate group in R,S-sulforaphane reacts with sulfhydryls to form conjugated compounds. First, the compound was treated with excess DTT (which has two free sulfhydryl groups) to conjugate the isothiocyanate group of R,S-sulforaphane or S-sulforaphane with the sulfhydryl group of DTT and the resulting adducts were then used as substrates for mouse MsrA and mouse MsrB2. The reduction of the DTT-sulforaphane adduct was analyzed using HPLC analysis of the adduct with buffer (as control; FIG. 12A), mouse MsrB2 (FIG. 12B), and mouse MsrA (FIG. 12C). The arrows indicate the migration of the DTT-erucin adduct. […] FIG. 13 illustrates the HPLC analysis of the DTT-R-sulforaphane adduct incubated with buffer (as control) (FIG. 13A), mouse MsrA (FIG. 13B), and mouse MsrB2 (FIG. 13C). Again, the arrows show the migration of the DTT-erucin adduct.
(§2) Mesoridazine, which has a mild effect on treating schizophrenia, was examined to determine its reduction by yeast fRMsr, mouse MsrB2, and mouse MsrA (FIG. 14). The peak of m/z 387.6 corresponds to the molecular weight of mesoridazine and the peak of m/z 371.6 corresponds to the molecular weight of thioridazine. FIG. 14B details the HPLC analysis of mesoridazine incubated with mouse MsrB2 and DTT. FIG. 14C provides the HPLC analysis of mesoridazine incubated with yeast fRMsr and DTT. FIG. 14D illustrates the specific activities of various Msrs for the reduction of mesoridazine (left to right): mouse MsrA in the presence of DTT as a reductant, mouse MsrA in the presence of the thioredoxin reducing system, mouse MsrB2 in the presence of DTT, and yeast fRMsr in the presence of DTT.
(§3) The reduction of triclabendazole sulfoxide was examined. This compound has been used to treat liver fluke, Fasciola hepatica and Fasciola gigantica, in sheep, goat, and cattle as a form of triclabendazole. Triclabendazole can be metabolized to several different forms including triclabendazole sulfoxide, which is an oxidized form of methylsulfide group, in biological systems. FIG. 15A provides an HPLC analysis of triclabendazole sulfoxide incubated with mouse MsrA and DTT. The peak of m/z 375.2 and 377.2 correspond to the molecular weight of triclabendazole sulfoxide and the peak of m/z 359.2 and 361.2 correspond to the molecular weight of triclabendazole. FIG. 15B illustrates an HPLC analysis of triclabendazole sulfoxide incubated with mouse MsrB2 and DTT. FIG. 15C details an HPLC analysis of triclabendazole sulfoxide incubated with yeast fRMsr and DTT. FIG. 15D illustrates the specific activities of various Msrs for the reduction of triclabendazole sulfoxide (left to right): mouse MsrA in the presence of DTT as a reductant, mouse MsrA in the presence of the thioredoxin reducing system, mouse MsrB2 in the presence of DTT, and yeast fRMsr in the presence of DTT.
(§4) Another methylsulfinyl-containing drug, sulmazole, was tested as a substrate for Msrs. This drug is pharmacologically active as a cardiotonic agent and is a phosphodiesterase inhibitor. FIG. 16A details an HPLC analysis of sulmazole incubated with mouse MsrA and DTT. The peak of m/z 288.3 corresponds to the molecular weight of sulmazole and the peak of m/z 272.3 corresponds to the molecular weight of reduced form of sulmazole. FIG. 16B illustrates an HPLC analysis of sulmazole incubated with mouse MsrB2 and DTT. FIG. 16C provides an HPLC analysis of sulmazole incubated with yeast fRMsr and DTT. FIG. 16D details the specific activities of various Msrs for the reduction of sulmazole (left to right): mouse MsrA in the presence of DTT as a reductant, mouse MsrA in the presence of the thioredoxin reducing system, mouse MsrB2 in the presence of DTT, and yeast fRMsr in the presence of DTT.
DMSO, which is used as a preservative for stem cells, solvent for drugs, and a drug itself with anti-inflammatory and free radical scavenging properties, was studied for its reduction by Msrs. FIG. 17A details a GC analysis of DMSO incubated with mouse MsrA and DTT. […]

mouse MsrB2 = mouse MsrB2 (Mus musculus, UniProt Q78J03); test: Reduction of methylsulfinyl compounds by mouse MsrB2 (HPLC/GC analysis); assay type: biochemical; conditions: in the presence of DTT
Chain of mouse MsrB2 (Q78J03 43-175): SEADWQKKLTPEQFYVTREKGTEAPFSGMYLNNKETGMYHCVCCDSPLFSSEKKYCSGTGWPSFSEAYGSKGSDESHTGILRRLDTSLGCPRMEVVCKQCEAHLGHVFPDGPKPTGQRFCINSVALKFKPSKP
Method: as §1, §2, §3
as §4, with “FIG. 16D details the specific activities of various Msrs for the reduction of sulmazole (left to right): mouse MsrA in the presence of DTT as a reductant, mouse MsrA in the presence of the thioredoxin reducing system, mouse MsrB2 in the presence of DTT, and yeast fRMsr in the presence of DTT.” left out

SK-Hep1 cells = test: Growth and morphology of SK-Hep1 cells in Met-free DMEM supplemented with Met or Met sulfoxides (MTS proliferation assay, microscopy); assay type: cell-based, human; conditions: Met-free DMEM supplemented with 0.1 mM of the compound
Method: Cell culture—SK-Hep1 (ATCC: HTB-52™) and fRMsr-transfected SK-Hep1 cells were cultured in DMEM or Met-free DMEM (GIBCO) media, supplemented with 0.1 mM Met, 0.1 mM Met-RO, 0.1 mM Met-SO, or 0.1 mM Met-RSO. […] Thus, 0.1 mM Met sulfoxides were used in the experiments described below. Cell culture experiments, with the exception of a proliferation assay, were carried out in 6-well plates, and cells were maintained at 37° C. in a 5% CO2 atmosphere. Proliferation Assay—Cell growth was quantified using colorimetric MTS assay (Promega). Cells in regular DMEM medium were plated in 96-well plates at 5×10^3 cells/well, washed with PBS, and specialized DMEM media were added that contained Met, Met-SO, Met-RO, or Met-RSO 24 hours after plating. To assay for cell proliferation, a tetrazolium compound [3-(4,5-dimethylthiazol-2-yl)-5-(3-carboxymethoxyphenyl)-2-(4-sulfophenyl)-2H-tetrazolium, inner salt; MTS] and an electron coupling reagent (phenazine methosulfate; PMS) were mixed according to the manufacturer's protocol and then 20 μL of the mixture were added to 100 μL of phenol red-excluded media that further replaced cell culture media. After 90 minutes of incubation at 37° C. in the atmosphere of 5% CO2, cell proliferation was measured at indicated time periods from 0 to 96 hours at 450 nm in a plate reader. Direct counting of viable cells using 0.2% trypan blue was done in 6-well plates. Microscopy—A Nikon TE-300 Widefield Microscope was used to prepare images of SK-Hep1 cells grown on different Met and Met sulfoxide media. Microscopy analyses were carried out in the University of Nebraska Microscopy Core Facility.

[1] = system: MsrA-knockdown SK-Hep1 cells; test: Growth of MsrA-knockdown SK-Hep1 cells on Met and Met sulfoxide media; assay type: cell-based, human; conditions: 0.1 mM, 96 hours
Method: Proliferation Assay—Cell growth was quantified using colorimetric MTS assay (Promega). Cells in regular DMEM medium were plated in 96-well plates at 5×10^3 cells/well, washed with PBS, and specialized DMEM media were added that contained Met, Met-SO, Met-RO, or Met-RSO 24 hours after plating. To assay for cell proliferation, a tetrazolium compound [3-(4,5-dimethylthiazol-2-yl)-5-(3-carboxymethoxyphenyl)-2-(4-sulfophenyl)-2H-tetrazolium, inner salt; MTS] and an electron coupling reagent (phenazine methosulfate; PMS) were mixed according to the manufacturer's protocol and then 20 μL of the mixture were added to 100 μL of phenol red-excluded media that further replaced cell culture media. After 90 minutes of incubation at 37° C. in the atmosphere of 5% CO2, cell proliferation was measured at indicated time periods from 0 to 96 hours at 450 nm in a plate reader. Direct counting of viable cells using 0.2% trypan blue was done in 6-well plates. Knockdown of MsrA in SK-Hep1 cells by siRNA—Double stranded siRNAs (Dharmacon) for targeting human MsrA mRNA were used to knockdown this gene in SK-Hep1 cells. Cells were transfected with siRNA by using DharmaFECT™ Transfection Reagent (Dharmacon) according to the manufacturer's protocol. Proliferation of these cells was assayed 60 hours after transfection in comparison with control transfected cells.

selenoproteins = test: 75Se metabolic labeling of SK-Hep1 cells grown on Met and Met sulfoxide media; assay type: cell-based, human; conditions: 0.1 mM of each amino acid
Method: ^75 Se Metabolic labeling—SK-Hep1 cells were plated in 6-well plates at 7.5×10^4 cells/well in 1.5 mL of regular DMEM medium. After 24 hours, cells were washed with PBS and the medium was changed to modified DMEM media containing Met, Met-SO, Met-RO, or Met-RSO (0.1 mM of each amino acid). 0.01 mCi of freshly neutralized [^75Se]selenious acid (specific activity 1,000 Ci/mmol, University of Missouri Research Reactor) was added in each well at 48 hours after changing the medium and cells were incubated at 37° C. for 24 hours in 5% CO2 atmosphere, followed by harvesting the cells. Cell extracts (30 μg of total protein) were electrophoresed on 10% Bis-Tris gels and transferred onto PVDF membranes (Invitrogen). The ^75Se radioactivity pattern was visualized by using a PhosphorImager (GE Health Care).

CBS = test: Western blot analysis of CBS in SK-Hep1 cells grown on Met and Met sulfoxide media; assay type: cell-based, human; conditions: SK-Hep1 cells, 0.1 mM
Method: Analysis of SK-Hep1 and fRMsr-transfected SK-Hep1 cells—SK-Hep1 and fRMsr-transfected SK-Hep1 cells were plated in 6-well plates at 7.5×10^4 cells/well in regular DMEM medium. The medium was changed to Met-free DMEM supplemented with either Met or individual Met sulfoxides at 24 hours after plating. Cells were then collected every 24 hours until 96 hours. Protein concentration was measured by the Bradford assay and the samples were probed by standard immunoblot assays with polyclonal MsrA (kindly provided by Bertrand Friguet), cystathionine beta synthase (CBS) (kindly provided by Ruma Banerjee), and activating transcription factor 3 (ATF3) (Santa Cruz Biotechnology) antibodies.

yeast fRMsr = molecular target: T2, yeast fRMsr (Saccharomyces cerevisiae, UniProt P36088); test: Activity assay of purified recombinant yeast fRMsr towards free Met sulfoxides (HPLC, OPA derivatization); assay type: biochemical, S. cerevisiae; conditions: recombinant His-tagged yeast fRMsr
T2 construct: His-tag (C); made in house; host or cells: E. coli BL21 (DE3), pET21b
T2 sequence (P36088 1-180): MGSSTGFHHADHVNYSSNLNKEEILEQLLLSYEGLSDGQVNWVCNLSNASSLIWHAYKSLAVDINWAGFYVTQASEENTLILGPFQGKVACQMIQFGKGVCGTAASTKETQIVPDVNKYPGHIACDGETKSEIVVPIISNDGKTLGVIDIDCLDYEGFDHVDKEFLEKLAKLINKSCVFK
Excerpt: Cloning and expression of yeast fRMsr—Characterization of S. cerevisiae fRMsr (YKL069W) is described in Le, D. T., et al. (2009) Functional analysis of free methionine-R-sulfoxide reductase from Saccharomyces cerevisiae. J Biol Chem., 284(7), 4354-4364. Briefly, a yeast fRMsr cDNA, which encodes a protein homologous to fRMsr from E. coli, was amplified from S. cerevisiae genomic DNA and subcloned into pET21b vector (Novagen) using primers 5′-AAACATATGATGGGCTCATCAACCGGGTTTC-3′ (sense; SEQ ID NO:1) and 5′-AAGCGGCCGCGACACATGATTTATTAATTAATTTAGCAAG-3′ (antisense; SEQ ID NO:2). After transformation into BL21 (DE3) E. coli, the subcloned sequence was verified by DNA sequencing. Cells with the plasmid in 500 mL LB medium containing 100 μg/mL ampicillin were grown until OD600 reached 0.6-0.8, followed by addition of IPTG to 0.3 mM. Protein expression was at 30° C. for 4 hours, followed by harvesting cells by centrifugation at 4,000 rpm for 5 minutes. Cells were washed with PBS and stored at −70° C. until use.
To purify the protein, a cell pellet was dissolved in resuspension buffer (Tris-HCl, pH 7.5, 15 mM imidazole, 300 mM NaCl), and PMSF was added to a final concentration of 0.5 mM. After sonication, the supernatant was collected by centrifugation at 8,000 rpm for 30 minutes. The supernatant was loaded onto a cobalt Talon resin (Clontech) pre-equilibrated with resuspension buffer. Following washing with the same buffer, the protein was eluted with elution buffer (Tris-HCl, pH 7.5, 300 mM imidazole, 300 mM NaCl). Fractions containing yeast fRMsr were pooled together and dialyzed overnight against PBS in a dialysis cassette (Pierce).
Activity assays of fRMsr—Reaction mixture (40 μL) included 50 mM DTT, 1 mM substrate (Met-RO or Met-SO), and purified enzyme or cell lysate prepared by treatment with CelLytic™M cell lysis reagent (Sigma). 20 μL of the reaction mixture was mixed with 2 μL of TCA and subjected to OPA derivatization as described above and then injected onto the column to measure endogenous Met level in the samples. An additional 20 μL from the same original reaction mixture were incubated at 37° C. for 30 minutes and then subjected to OPA derivatization by the same procedure using TCA. After derivatization of the sample (2-5 μL) by adding OPA solution to 100 μL as a final volume, 50 μL of the mixture were subjected to an HPLC separation as described above.

SMILES	Reduction by mouse MsrA (mouse MsrA)	Reduction by mouse MsrB2 (mouse MsrB2)	Growth of SK-Hep1 cells (SK-Hep1 cells)	Selenoprotein patterns (75Se labeling) (selenoproteins)	Activity of recombinant yeast fRMsr protein towards the substrate (yeast fRMsr)	other results
C[S@@+]([O-])CCCCNC(=S)SCC(O)C(O)CS (stereo partly drawn) [DTT-R-sulforaphane adduct]	cannot be reduced	cannot be reduced	–	–	–	–
CSCC[C@H](N)C(=O)O [Met, methionine]	–	–	grew best	No difference was observed	–	Growth of MsrA-deficient cells [1]: still supported their growth; Expression of CBS (CBS): maintained stable CBS levels
C[S@+]([O-])CCCCNC(=S)SCC(O)C(O)CS (stereo partly drawn) [DTT-S-sulforaphane adduct]	can be reduced	not by mouse MsrB2	–	–	–	–
CN(C)c1ccc(/N=N/c2ccc(S(=O)(=O)N[C@@H](CC[S@@+](C)[O-])C(=O)O)cc2)cc1 [dabsyl-Met-RO]	–	–	–	–	inactive	–
C[S+]([O-])CC[C@H](N)C(=O)O (stereo partly drawn) [Met-RSO, L-Met-R,S-sulfoxide]	–	–	could also proliferate	No difference was observed	–	–
CN(C)c1ccc(N=Nc2ccc(S(=O)(=O)N[C@@H](CC[S@+](C)[O-])C(=O)O)cc2)cc1 [dabsyl-Met-SO]	–	–	–	–	inactive	–
